Laboratory results: ChEMBL document CHEMBL4823254, “Tetrahydroquinoline-Capped Histone Deacetylase 6 Inhibitor SW-101 Ameliorates Pathological Phenotypes in a Charcot-Marie-Tooth Type 2A Mouse Model” (J Med Chem, 2021)
Calls of active or inactive are those of the source. The calls are words filed in the database; no cut-off is given here.

Experiments:
[1] = biological target: Histone deacetylase 1 (Homo sapiens, UniProt Q13547)
Description: Inhibition of recombinant human HDAC1 using Ac-GAK(Ac)-AMC as substrate preincubated for 10 mins followed by substrate addition and measured after 30 mins by fluorescence-based assay

[2] = Genotoxicity in Salmonella typhimurium TA1535 at 5 to 100 uM in presence of liver S9 fraction by Ames test; assay type: toxicity; conditions: salmonella enterica subsp. enterica serovar typhimurium, s9, 100 µM; dose 5-100 µM
[3] = biological target: hERG (KCNH2) (Homo sapiens, UniProt Q12809); test: Inhibition of human ERG expressed in CHO cells at 10 uM by automated patch clamp method relative to control; assay type: cell-based; conditions: CHO cells expressing human ERG
Chain of hERG (KCNH2) (Q12809 whole entry): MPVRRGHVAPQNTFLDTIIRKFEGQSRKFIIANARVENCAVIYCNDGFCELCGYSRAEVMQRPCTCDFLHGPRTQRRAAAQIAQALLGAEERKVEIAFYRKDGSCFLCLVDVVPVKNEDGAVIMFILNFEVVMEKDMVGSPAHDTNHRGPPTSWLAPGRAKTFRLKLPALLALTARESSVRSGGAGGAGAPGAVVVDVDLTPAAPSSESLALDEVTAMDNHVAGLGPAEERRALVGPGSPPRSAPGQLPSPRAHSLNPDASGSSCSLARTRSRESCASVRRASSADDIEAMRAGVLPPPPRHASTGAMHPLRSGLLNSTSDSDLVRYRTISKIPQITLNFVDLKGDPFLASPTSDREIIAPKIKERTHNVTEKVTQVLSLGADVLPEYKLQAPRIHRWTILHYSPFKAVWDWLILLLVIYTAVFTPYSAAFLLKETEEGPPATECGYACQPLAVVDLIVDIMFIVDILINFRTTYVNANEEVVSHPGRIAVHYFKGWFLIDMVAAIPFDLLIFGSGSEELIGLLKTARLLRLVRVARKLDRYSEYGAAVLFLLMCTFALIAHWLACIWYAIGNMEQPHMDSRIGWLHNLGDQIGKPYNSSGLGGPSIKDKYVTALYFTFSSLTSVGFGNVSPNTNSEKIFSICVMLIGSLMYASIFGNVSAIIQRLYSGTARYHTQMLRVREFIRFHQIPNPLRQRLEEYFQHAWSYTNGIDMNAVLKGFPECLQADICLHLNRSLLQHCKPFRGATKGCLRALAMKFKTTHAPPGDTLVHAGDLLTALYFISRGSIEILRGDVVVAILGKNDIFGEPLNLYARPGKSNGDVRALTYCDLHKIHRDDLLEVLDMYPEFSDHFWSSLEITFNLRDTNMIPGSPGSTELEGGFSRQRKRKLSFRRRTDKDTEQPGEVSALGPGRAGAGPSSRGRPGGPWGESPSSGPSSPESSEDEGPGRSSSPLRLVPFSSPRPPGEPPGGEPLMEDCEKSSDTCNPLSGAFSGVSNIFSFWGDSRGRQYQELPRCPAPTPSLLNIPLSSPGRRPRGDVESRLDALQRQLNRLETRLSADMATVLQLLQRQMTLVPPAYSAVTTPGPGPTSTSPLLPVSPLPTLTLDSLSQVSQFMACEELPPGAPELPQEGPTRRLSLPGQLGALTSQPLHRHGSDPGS

[4] = biological target: T1, Protein deacetylase HDAC6 (Homo sapiens, UniProt Q9UBN7); test: Inhibition of HDAC6 in human RPMI-8226 cells assessed as increase in tubulin acetylation incubated for 6 hrs by Western blot analysis; assay type: cell-based
T1 sequence (Q9UBN7 whole entry): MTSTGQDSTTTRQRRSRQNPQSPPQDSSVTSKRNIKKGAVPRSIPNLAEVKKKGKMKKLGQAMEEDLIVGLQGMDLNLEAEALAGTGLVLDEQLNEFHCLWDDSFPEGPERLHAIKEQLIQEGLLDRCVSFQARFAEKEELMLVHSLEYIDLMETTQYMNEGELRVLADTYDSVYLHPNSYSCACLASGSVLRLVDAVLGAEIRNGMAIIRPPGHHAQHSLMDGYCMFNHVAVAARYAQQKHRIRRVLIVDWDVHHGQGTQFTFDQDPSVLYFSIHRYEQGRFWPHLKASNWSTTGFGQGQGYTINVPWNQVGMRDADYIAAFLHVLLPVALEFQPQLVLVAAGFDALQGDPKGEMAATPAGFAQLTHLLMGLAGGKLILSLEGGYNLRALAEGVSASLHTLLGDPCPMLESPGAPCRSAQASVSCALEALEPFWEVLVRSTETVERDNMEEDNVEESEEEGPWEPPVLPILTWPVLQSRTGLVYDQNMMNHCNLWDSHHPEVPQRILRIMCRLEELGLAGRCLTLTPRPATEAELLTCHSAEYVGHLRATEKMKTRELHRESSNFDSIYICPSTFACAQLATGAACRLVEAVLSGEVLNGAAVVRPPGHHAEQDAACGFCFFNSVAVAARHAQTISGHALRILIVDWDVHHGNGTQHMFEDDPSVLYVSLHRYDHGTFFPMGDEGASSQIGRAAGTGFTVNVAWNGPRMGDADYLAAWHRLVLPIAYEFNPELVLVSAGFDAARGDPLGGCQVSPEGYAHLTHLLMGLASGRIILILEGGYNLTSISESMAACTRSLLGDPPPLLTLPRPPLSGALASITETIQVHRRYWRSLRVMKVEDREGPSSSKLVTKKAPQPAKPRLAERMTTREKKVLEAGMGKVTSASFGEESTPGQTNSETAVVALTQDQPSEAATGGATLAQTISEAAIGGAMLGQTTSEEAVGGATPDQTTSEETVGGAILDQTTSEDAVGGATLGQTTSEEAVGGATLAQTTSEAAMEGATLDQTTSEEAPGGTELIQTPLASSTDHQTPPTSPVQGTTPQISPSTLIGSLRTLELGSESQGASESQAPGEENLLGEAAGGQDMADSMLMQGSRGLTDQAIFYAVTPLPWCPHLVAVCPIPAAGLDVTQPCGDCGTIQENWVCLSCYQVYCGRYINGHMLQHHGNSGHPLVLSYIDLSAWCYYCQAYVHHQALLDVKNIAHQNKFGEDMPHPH

[5] = Tmax in C57BL/6J mouse brain at 15 mg/kg, ip; assay type: ADME, organism-based
[6] = biological target: T2, Protein deacetylase HDAC6 (Mus musculus) (UniProt Q9Z2V5); test: In vivo inhibition of HDAC6 in wild type mouse assessed as increase in alpha-tubulin acetylation in sciatic nerve tissue at 10 to 20 mg/kg, ip measured after 6 hrs by immunoblot analysis relative to control; assay type: functional, organism-based; parameters: scale not given: the % may be the effect or the level left; conditions: dose 10-20 mg/kg
T2 sequence (whole entry): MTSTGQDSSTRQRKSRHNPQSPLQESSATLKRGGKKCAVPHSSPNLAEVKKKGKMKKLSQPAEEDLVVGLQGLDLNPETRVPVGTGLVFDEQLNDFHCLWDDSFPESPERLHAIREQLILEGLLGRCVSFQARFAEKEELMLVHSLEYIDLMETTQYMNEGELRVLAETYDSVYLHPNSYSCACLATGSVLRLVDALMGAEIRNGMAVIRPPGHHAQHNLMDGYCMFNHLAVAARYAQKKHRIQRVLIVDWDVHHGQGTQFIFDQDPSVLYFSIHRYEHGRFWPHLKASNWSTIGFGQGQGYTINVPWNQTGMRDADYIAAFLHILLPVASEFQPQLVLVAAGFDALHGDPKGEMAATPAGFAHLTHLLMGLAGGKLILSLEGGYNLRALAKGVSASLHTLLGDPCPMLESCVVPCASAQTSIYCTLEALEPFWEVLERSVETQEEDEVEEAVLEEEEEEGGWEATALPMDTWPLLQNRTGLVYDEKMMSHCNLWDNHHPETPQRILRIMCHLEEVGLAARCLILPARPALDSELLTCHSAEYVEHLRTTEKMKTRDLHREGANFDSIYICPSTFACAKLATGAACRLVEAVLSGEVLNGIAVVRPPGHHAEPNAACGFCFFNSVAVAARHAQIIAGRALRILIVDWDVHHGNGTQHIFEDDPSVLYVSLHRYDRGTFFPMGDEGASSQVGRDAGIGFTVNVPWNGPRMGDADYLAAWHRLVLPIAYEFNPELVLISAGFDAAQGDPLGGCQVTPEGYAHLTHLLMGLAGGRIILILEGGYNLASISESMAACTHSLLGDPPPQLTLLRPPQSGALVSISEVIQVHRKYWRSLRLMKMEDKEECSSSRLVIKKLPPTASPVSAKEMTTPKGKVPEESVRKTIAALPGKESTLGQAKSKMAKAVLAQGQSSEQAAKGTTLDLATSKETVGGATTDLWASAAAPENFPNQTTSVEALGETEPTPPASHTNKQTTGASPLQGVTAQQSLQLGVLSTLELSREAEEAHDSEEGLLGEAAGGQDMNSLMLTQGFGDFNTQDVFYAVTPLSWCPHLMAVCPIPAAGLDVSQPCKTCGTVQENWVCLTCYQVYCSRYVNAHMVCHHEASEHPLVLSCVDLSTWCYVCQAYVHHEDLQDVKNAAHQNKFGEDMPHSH

[7] = biological target: T2, Protein deacetylase HDAC6 (Mus musculus); test: In vivo inhibition of HDAC6 in hMFN2-induced CMT2A transgenic mouse model assessed as increase in acetylated tubulin in distal sciatic nerve tissue at 20 mg/kg, ip qd administered for 22 weeks by Western blot analysis; assay type: functional, organism-based
[8] = biological target: Histone deacetylase 2 (Homo sapiens, UniProt Q92769); test: Inhibition of recombinant human HDAC2 using Ac-GAK(Ac)-AMC as substrate preincubated for 10 mins followed by substrate addition and measured after 30 mins by fluorescence-based assay
Chain of Histone deacetylase 2 (Q92769 whole entry): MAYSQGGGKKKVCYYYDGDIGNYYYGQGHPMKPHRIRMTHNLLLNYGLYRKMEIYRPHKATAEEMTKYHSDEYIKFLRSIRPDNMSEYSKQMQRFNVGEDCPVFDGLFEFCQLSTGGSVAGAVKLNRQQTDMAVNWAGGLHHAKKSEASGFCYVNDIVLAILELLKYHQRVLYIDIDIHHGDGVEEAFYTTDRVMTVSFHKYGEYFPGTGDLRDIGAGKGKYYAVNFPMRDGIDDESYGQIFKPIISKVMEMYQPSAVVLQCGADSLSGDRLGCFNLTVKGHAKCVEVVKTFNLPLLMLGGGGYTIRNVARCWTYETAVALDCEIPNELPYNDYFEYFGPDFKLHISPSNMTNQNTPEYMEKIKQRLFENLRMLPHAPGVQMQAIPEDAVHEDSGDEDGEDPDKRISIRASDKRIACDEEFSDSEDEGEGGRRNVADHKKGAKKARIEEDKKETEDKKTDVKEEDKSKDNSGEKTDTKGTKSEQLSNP

[9] = biological target: T2, Protein deacetylase HDAC6 (Mus musculus); test: In vivo inhibition of HDAC6 in wild type mouse assessed as increase in alpha-tubulin acetylation in sciatic nerve tissue at 10 to 20 mg/kg, ip measured after 24 hrs by immunoblot analysis; assay type: functional, organism-based; conditions: dose 10-20 mg/kg
[10] = Genotoxicity in Salmonella typhimurium TA1537 at 5 to 100 uM in presence of liver S9 fraction by Ames test; assay type: toxicity; conditions: salmonella enterica subsp. enterica serovar typhimurium, s9, 100 µM; dose 5-100 µM

Chain of Histone deacetylase 1 (Q13547 whole entry): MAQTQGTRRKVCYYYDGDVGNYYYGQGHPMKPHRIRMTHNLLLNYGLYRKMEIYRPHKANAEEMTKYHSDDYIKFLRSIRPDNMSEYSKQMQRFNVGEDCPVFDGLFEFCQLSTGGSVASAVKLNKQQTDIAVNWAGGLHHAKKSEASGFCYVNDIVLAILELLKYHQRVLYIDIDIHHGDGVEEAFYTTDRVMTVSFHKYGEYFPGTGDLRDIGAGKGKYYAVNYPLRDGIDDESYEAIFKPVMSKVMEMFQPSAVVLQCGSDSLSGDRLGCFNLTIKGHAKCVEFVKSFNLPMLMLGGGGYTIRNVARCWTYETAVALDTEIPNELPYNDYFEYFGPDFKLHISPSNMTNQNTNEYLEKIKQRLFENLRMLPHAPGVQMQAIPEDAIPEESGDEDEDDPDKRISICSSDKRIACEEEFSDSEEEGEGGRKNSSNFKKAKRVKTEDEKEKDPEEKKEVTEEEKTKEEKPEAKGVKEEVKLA

IC50 [1]: 356 nM | EC50 [4]: 140 nM | Tmax [5]: 15 min | Activity [6]: 150% | inhibition [7]: Active | IC50 [8]: 140 nM | inhibition [9]: Active
SMILES: NC(=O)c1ccc2c(c1)CCCN2Cc1ccc(C(=O)NO)cc1
Activity [2]: Non-Toxic | inhibition at 10 µM [3]: 30% | Activity [10]: Non-Toxic
